# Measured values from US12492186B2, “Bicyclic heterocyclic compounds useful as IRAK4 inhibitors” (BRISTOL-MYERS SQUIBB COMPANY, priority 2019, dated 2025).
# Biological target: IRAK4 (Homo sapiens (Human), UniProt Q9NWZ3)
# Test: IRAK4 Inhibition Assay
# Format: biochemical
# Details: ATP 500 μM; IRAK4 0.6 nM; 60 min room temperature; Caliper LABCHIP 3000
# Method: The assays were performed in U-bottom 384-well plates. The final assay volume was 30 μL prepared from 15 μL additions of enzyme and substrates (fluoresceinated peptide and ATP) and test compounds in assay buffer (20 mM HEPES pH 7.2, 10 mM MgCl2, 0.015% Brij 35 and 4 mM DTT). The reaction was initiated by the combination of IRAK4 with substrates and test compounds. The reaction mixture was incubated at room temperature for 60 min. and terminated by adding 45 μL of 35 mM EDTA to each sample. The reaction mixture was analyzed on the Caliper LABCHIP® 3000 (Caliper, Hopkinton, MA) by electrophoretic separation of the fluorescent substrate and phosphorylated product. Inhibition data were calculated by comparison to no enzyme control reactions for 100% inhibition and vehicle-only reactions for 0% inhibition. The final concentrations of reagents in the assays are ATP, 500 μM; FL-IPTSPITTTYFFFKKK peptide 1.5 μM; IRAK4, 0.6 nM; and DMSO, 1.6%.
# IRAK4, sequence (Q9NWZ3 whole entry, species assumed): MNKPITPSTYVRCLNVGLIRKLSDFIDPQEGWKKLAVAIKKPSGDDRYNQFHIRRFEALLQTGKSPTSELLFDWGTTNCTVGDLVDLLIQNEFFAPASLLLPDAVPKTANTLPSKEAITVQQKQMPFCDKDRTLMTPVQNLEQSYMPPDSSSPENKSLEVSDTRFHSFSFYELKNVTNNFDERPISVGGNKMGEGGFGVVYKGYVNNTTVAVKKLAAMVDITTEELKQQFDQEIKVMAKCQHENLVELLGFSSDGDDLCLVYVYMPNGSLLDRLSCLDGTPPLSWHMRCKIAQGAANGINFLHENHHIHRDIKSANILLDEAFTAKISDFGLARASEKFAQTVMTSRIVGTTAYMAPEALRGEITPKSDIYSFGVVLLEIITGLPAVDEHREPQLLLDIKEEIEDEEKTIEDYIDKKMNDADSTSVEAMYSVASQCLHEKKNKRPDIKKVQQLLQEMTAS
row,IC50 [µM],Compound
1,0.028,"COCCNC(=O)c1cnc2ccc(-c3cn[nH]c3)cc2c1NC(C)C [Example 18, 4-(isopropylamino)-N-(2-methoxyethyl)-6-(1H-pyrazol-4-yl)quinoline-3-carboxamide]"
2,0.0388,"CC(C)Nc1c(-c2cn(CCS(C)(=O)=O)nn2)cnc2ccc(-c3cn[nH]c3)cc12 [Example 137, N-isopropyl-3-(1-(2-(methylsulfonyl)ethyl)-1H-1,2,3-triazol-4-yl)-6-(1H-pyrazol-4-yl)quinolin-4-amine]"
3,0.028,"CC(O)CCNC(=O)c1cnc2ccc(-c3cn[nH]c3)cc2c1NCC(F)F (stereo not drawn) [Example 64, 4-((2,2-difluoroethyl)amino)-N-(3-hydroxybutyl)-6-(1H-pyrazol-4-yl)quinoline-3-carboxamide]"
4,0.0286,"CC(C)Nc1c(C(=O)NCCN2CCCCC2=O)cnc2ccc(-c3cn[nH]c3)cc12 [Example 86, 4-(isopropylamino)-N-(2-(2-oxopiperidin-1-yl)ethyl)-6-(1H-pyrazol-4-yl)quinoline-3-carboxamide]"
5,0.231,"Cc1cc2ncc(C(=O)NCCC(C)(C)O)c(NC(C)C)c2cc1-c1cncs1 [Example 61, N-(3-hydroxy-3-methylbutyl)-4-(isopropylamino)-7-methyl-6-(thiazol-5-yl)quinoline-3-carboxamide]"
6,0.0316,"CC(=O)N[C@H]1CC[C@H](NC(=O)c2cnc3ccc(-c4cccnc4)nc3c2NC(C)C)CC1 [Example 153, N-((1r,4r)-4-acetamidocyclohexyl)-4-(isopropylamino)-6-(pyridin-3-yl)-1,5-naphthyridine-3-carboxamide]"
7,0.0242,"CC(O)CNc1c(C(=O)NC[C@@H](F)C(C)(C)O)cnc2ccc(-c3cn[nH]c3)cc12 (stereo partly drawn) [Example 30, N—((R)-2-fluoro-3-hydroxy-3-methylbutyl)-4-((2-hydroxypropyl)amino)-6-(1H-pyrazol-4-yl)quinoline-3-carboxamide]"
8,0.0217,"CC(C)Nc1c(C(N)=O)cnc2ccc(-c3cn[nH]c3)cc12 [Example 29, 4-(isopropylamino)-6-(1H-pyrazol-4-yl)quinoline-3-carboxamide]"
9,0.43,"CC(C)(O)[C@H](F)CNC(=O)c1cnc2ccc(-c3cncs3)cc2c1Nc1cnn(CC(F)F)c1 [Example 31, (R)-4-((1-(2,2-difluoroethyl)-1H-pyrazol-4-yl)amino)-N-(2-fluoro-3-hydroxy-3-methylbutyl)-6-(thiazol-5-yl)quinoline-3-carboxamide]"
10,0.176,"CC(C)Nc1c(C(=O)NCCC(C)(C)O)cnc2ccc(-c3cncc(F)c3)cc12 [Example 72, 6-(5-fluoropyridin-3-yl)-N-(3-hydroxy-3-methylbutyl)-4-(isopropylamino)quinoline-3-carboxamide]"
11,0.145,"CC(C)Nc1c(C(=O)NC[C@@H](F)C(C)(C)O)cnc2ccc(-c3cccc(C#N)c3)cc12 [Example 6, (R)-6-(3-cyanophenyl)-N-(2-fluoro-3-hydroxy-3-methylbutyl)-4-(isopropylamino) quinoline-3-carboxamide]"
12,0.116,"CC(O)CNc1c(C(=O)NC[C@@H](F)C(C)(C)O)cnc2ccc(-c3cncs3)cc12 (stereo partly drawn) [Example 32, N—((R)-2-fluoro-3-hydroxy-3-methylbutyl)-4-((2-hydroxypropyl)amino)-6-(thiazol-5-yl)quinoline-3-carboxamide]"
13,0.0354,"CC(C)Nc1c(C(=O)NCCc2ncn[nH]2)cnc2ccc(-c3cn[nH]c3)cc12 [Example 104, N-(2-(1H-1,2,4-triazol-5-yl)ethyl)-4-(isopropylamino)-6-(1H-pyrazol-4-yl) quinoline-3-carboxamide]"
14,0.0512,"CC(C)Nc1c(C(=O)NCCC(C)(C)O)cnc2ccc(-c3ccc(F)nc3F)cc12 [Example 73, 6-(2,6-difluoropyridin-3-yl)-N-(3-hydroxy-3-methylbutyl)-4-(isopropylamino)quinoline-3-carboxamide]"
15,0.0197,"O=C(NCCC1CC1)c1cnc2ccc(-c3cn[nH]c3)cc2c1NC1CC(F)(F)C1 [Example 56, N-(2-cyclopropylethyl)-4-((3,3-difluorocyclobutyl)amino)-6-(1H-pyrazol-4-yl)quinoline-3-carboxamide]"
